Reference: the NIST ThermoML archive (doi:10.1007/s10765-016-2089-2)

Key:
[1] = wn = mass fraction of the nth substance listed; settings: 100 kPa, Liquid; for electrical conductivity: Alternating current cell with electrodes; for viscosity: Capillary tube (Ostwald / Ubbelohde) method; for mass density: Vibrating tube method
[2] = refractive index (Na D-line) (dimensionless); wn = mass fraction of the nth substance listed; settings: 100 kPa, Liquid, Standard Abbe refractometry

O=S(=O)([O-])[O-].[Cu+2] [copper sulfate] + O
Settings	electrical conductivity, [1] [S/m]	mass density, [1] [kg/m3]	refractive index, [2]	viscosity, [1] [mPa·s]
288.15 K, w1 = 0.0101	0.492	1009.6	1.3353	1.188
288.15 K, w1 = 0.0202	0.851	1019.98	1.3372	1.263
288.15 K, w1 = 0.0305	1.17	1030.49	1.3391	1.344
288.15 K, w1 = 0.0409	1.47	1041.68	1.3411	1.371
288.15 K, w1 = 0.0514	1.76	1052.54	1.3429	1.404
288.15 K, w1 = 0.0621	2.03	1063.7	1.3449	1.472
288.15 K, w1 = 0.0729	2.29	1074.95	1.3469	1.591
288.15 K, w1 = 0.0838	2.54	1086.38	1.3488	1.649
288.15 K, w1 = 0.0948	2.77	1098.22	1.3508	1.744
293.15 K, w1 = 0.0101	0.548	1008.63	1.3348	1.083
293.15 K, w1 = 0.0202	0.943	1019.09	1.3367	1.132
293.15 K, w1 = 0.0305	1.31	1029.38	1.3384	1.191
293.15 K, w1 = 0.0409	1.63	1040.53	1.3405	1.199
293.15 K, w1 = 0.0514	1.96	1051.49	1.3424	1.273
293.15 K, w1 = 0.0621	2.26	1062.26	1.3444	1.31
293.15 K, w1 = 0.0729	2.55	1073.67	1.3463	1.393
293.15 K, w1 = 0.0838	2.82	1084.84	1.3483	1.452
293.15 K, w1 = 0.0948	3.09	1096.44	1.3504	1.528
298.15 K, w1 = 0.0101	0.61	1007.43	1.3343	0.937
298.15 K, w1 = 0.0202	1.05	1017.84	1.3362	1.001
298.15 K, w1 = 0.0305	1.45	1028.06	1.3379	1.018
298.15 K, w1 = 0.0409	1.83	1039	1.34	1.068
298.15 K, w1 = 0.0514	2.18	1049.67	1.3418	1.123
298.15 K, w1 = 0.0621	2.52	1060.66	1.3437	1.142
298.15 K, w1 = 0.0729	2.84	1071.85	1.3456	1.227
298.15 K, w1 = 0.0838	3.16	1083.16	1.3476	1.288
298.15 K, w1 = 0.0948	3.44	1094.5	1.3495	1.36
303.15 K, w1 = 0.0101	0.664	1005.98	1.3338	0.835
303.15 K, w1 = 0.0202	1.14	1016.35	1.3356	0.892
303.15 K, w1 = 0.0305	1.59	1026.77	1.3373	0.918
303.15 K, w1 = 0.0409	2	1037.41	1.3392	0.952
303.15 K, w1 = 0.0514	2.38	1048.04	1.3411	1.014
303.15 K, w1 = 0.0621	2.75	1058.96	1.343	1.029
303.15 K, w1 = 0.0729	3.1	1070.1	1.3449	1.098
303.15 K, w1 = 0.0838	3.44	1081.38	1.3468	1.122
303.15 K, w1 = 0.0948	3.76	1092.64	1.3488	1.203
308.15 K, w1 = 0.0101	0.719	1004.32	1.3331	0.758
308.15 K, w1 = 0.0202	1.24	1014.65	1.3349	0.8
308.15 K, w1 = 0.0305	1.72	1024.97	1.3367	0.835
308.15 K, w1 = 0.0409	2.16	1035.64	1.3387	0.857
308.15 K, w1 = 0.0514	2.57	1046.35	1.3405	0.883
308.15 K, w1 = 0.0621	2.97	1057.16	1.3426	0.948
308.15 K, w1 = 0.0729	3.36	1068.13	1.3445	0.99
308.15 K, w1 = 0.0838	3.74	1078.76	1.3463	1.022
308.15 K, w1 = 0.0948	4.09	1091.27	1.3481	1.089
